Key:
[1] = biological target: T1, interaction of PKCι polypeptides with PAR6 polypeptides (Homo sapiens, UniProt P41743); assay: Secondary screen: PYN bound to plate-immobilised biotin-tagged PAR6; type: binding; details: for Secondary Screen: amount of PYN bound to biotin-tagged PAR6 plates
T1 construct: amino acids 1-113 or a full-length PKCι polypeptide; 6xHis; made in house
T1 sequence (P41743 10-122): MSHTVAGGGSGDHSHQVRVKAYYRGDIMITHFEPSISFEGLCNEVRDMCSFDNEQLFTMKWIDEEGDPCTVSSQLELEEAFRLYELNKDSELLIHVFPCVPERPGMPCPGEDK
Method: Multiple test compounds that were classified as hits in the primary screen as well as additional related compounds were evaluated in a secondary screen designed as follows. Briefly, a 96-well microtiter plate coated with streptavidin (Nunc #436014) was incubated for 2-4 hours at room temperature with 100 μl of a 20-30 μg/ml solution of biotin-tagged PAR6 (whole polypeptide) in phosphate-buffered saline containing Tween-20 (PBST). Plates were washed twice with PBST, then once with incubation buffer (50 mM Tris, pH 8.0; 135 mM NaCl; 10% glycerol; 0.002% EDTA). Incubation buffer (50 μl) was added to each well. The compounds to be tested were added (10 μl) followed by PYN (50 μl) diluted in incubation buffer to an approximate concentration of 4000-5000 relative fluorescent units per 50 μl. Plates were incubated overnight at 4° C. Plates were washed twice with incubation buffer, after which 50 μl incubation buffer was added to retain moisture in the wells. The amount of PYN bound on the plates was determined by measuring yellow fluorescence (532/526) in a Typhoon imager. Fluorescence was quantitated by Softmax Pro software.
A dose-response analysis was performed using the secondary screening assay and increasing amounts (e.g., 0, 0.1, 1, 10, 100, and […]) of gossypol, hexestrol, thimerosal, ebselen, ATG, ATM, ellagic acid, cisplatin, apomorphine, or phenylmercuric acetate.

[2] = test system: A549 human lung carcinoma cells; assay: Tumorigenicity in nude mice: A549 subcutaneous tumors; type: in vivo, mouse; details: 200 mg/kg body weight intraperitoneal daily, versus saline; FIG. 21
Method: Tumorigenicity in Nude Mice: The growth of A549 human lung carcinoma cells as established subcutaneous tumors was studied in athymic nude mice (Harlan-Sprague-Dawley, Indianapolis, Ind.) in a defined pathogen-free environment. Briefly, A549 cells were grown in F-12K Nutrient Mixture containing 10% FBS. A549 cells were harvested and resuspended in serum-containing medium. 5×10^6 cells in 100 μl of growth medium were injected subcutaneously into the flank of 4-6 week old female nude mice. Once palpable tumors were established (15 days after inoculation) animals were randomly segregated into two groups. One group received intraperitoneal injections of ATG (200 mg/kg body weight) daily; the second group received an equivalent volume of diluent control solution. Tumor size was measured daily. Tumor growth was quantified by measuring the tumors in three dimensions with calipers. Tumor volume (mm^3) was calculated using the formula: 0.5236 (L×W×H), where L represents the length of the tumor, W represents the width of the tumor, and H represents the height of the tumor. Animals were individually monitored throughout the experiment.

`OC[C@H]1O[C@H]([S-])[C@H](O)[C@@H](O)[C@@H]1O.[Au+]` [Aurothioglucose] was tested. Which “Secondary Screen” value [1] did it give?
Its value is “Confirmed”.

And the “Secondary Screen” value ([1]; listed as aurothioglucose)?
The value was “confirmed”.

What about the “dose-response analysis using the secondary screening assay” value ([1]; increasing amounts, e.g. 0, 0.1, 1, 10, 100, and 100 μM) of the same compound?
Its value is “dose-dependent response was detected”.

What about the “tumor growth (tumor volume)” value [2] of the same compound?
Its value is “less tumor growth”.

— patent publication US7642400B2, “Protein kinase C iota” (Mayo Foundation for Medical Education and Research, priority 2004, dated 2010)
